Results from ChEMBL document CHEMBL3885861, “Open TG-GATES”.

Species: Rattus norvegicus
Experiment: Open TG-GATES - Regimen: Daily Repeat
Format: toxicity, organism-based, Sprague-Dawley
Parameters: regimen Daily Repeat, gender Male, age 6 weeks
Conditions: in vivo, po, 15 mg/kg, route gavage, dose level High; for APTT / Bas / Eos / Fbg / Hb / Ht / Lym / MCH / MCHC / MCV / Mono / Neu / PT / Plat / RBC / Ret / WBC: tissue Blood; for KIDNEY_L / KIDNEY_R / KIDNEY_TOTAL: tissue Kidney; for LIVER: tissue Liver; for ALP / ALT / AST / BUN / CRE / Ca / Cl / DBIL / GLC / IP / K / LDH / Na / PL / RALB / TBIL / TC / TG / TP / gamma-GTP: tissue Plasma

## O=P1(N(CCCl)CCCl)NCCCO1 (stereo not drawn) [CYCLOPHOSPHAMIDE ANHYDROUS]
72 h, time 3 day
  TERMINAL_BW: 216.4 g
  APTT: 19.7 s
  Bas: 0%
  Eos: 1%
  Fbg: 279.6 mg/dL
  Hb: 12.9 g/dL
  Ht: 38.7%
  Lym: 73.8%
  MCH: 21.8 pg
  MCHC: 33.3%
  MCV: 65.5 fL
  Mono: 1.4%
  Neu: 23.8%
  PT: 16.8 s
  Plat: 121.4 x10_4/uL
  RBC: 590.2 x10_4/ul
  Ret: 1.6%
  WBC: 25.1 x10_2/uL
  KIDNEY_L: 1 g
  KIDNEY_R: 1 g
  KIDNEY_TOTAL: 1.9 g
  LIVER: 10.1 g
  ALP: 1493.4 IU/L
  ALT: 36.8 IU/L
  AST: 65.2 IU/L
  BUN: 16.4 mg/dL
  CRE: 0.2 mg/dL
  Ca: 10.6 mg/dL
  Cl: 106.4 meq/L
  DBIL: 0 mg/dL
  GLC: 187.6 mg/dL
  IP: 7.8 mg/dL
  K: 3.9 meq/L
  LDH: 169.2 IU/L
  Na: 142.6 meq/L
  PL: 148.2 mg/dL
  RALB: 2.9 g/dL
  TBIL: 0.008 mg/dL
  TC: 78.8 mg/dL
  TG: 95 mg/dL
  TP: 5.5 g/dL
  gamma-GTP: 1 IU/L
[…], time 7 day
  TERMINAL_BW: 231.7 g
  APTT: 22.1 s
  Bas: 0%
  Eos: 1%
  Fbg: 277.2 mg/dL
  Hb: 13.1 g/dL
  Ht: 38.8%
  Lym: 77%
  MCH: 21 pg
  MCHC: 33.6%
  MCV: 62.5 fL
  Mono: 1.2%
  Neu: 20.4%
  PT: 15.2 s
  Plat: 81.8 x10_4/uL
  RBC: 622 x10_4/ul
  Ret: 2.8%
  WBC: 12.8 x10_2/uL
  KIDNEY_L: 0.9 g
  KIDNEY_R: 1 g
  KIDNEY_TOTAL: 1.9 g
  LIVER: 10.9 g
  ALP: 1013 IU/L
  ALT: 32.2 IU/L
  AST: 59 IU/L
  BUN: 16.6 mg/dL
  CRE: 0.2 mg/dL
  Ca: 10.8 mg/dL
  Cl: 106.8 meq/L
  DBIL: 0 mg/dL
  GLC: 178.8 mg/dL
  IP: 6.5 mg/dL
  K: 4.1 meq/L
  LDH: 200 IU/L
  Na: 143 meq/L
  PL: 144.8 mg/dL
  RALB: 2.8 g/dL
  TBIL: 0.018 mg/dL
  TC: 71.2 mg/dL
  TG: 139.6 mg/dL
  TP: 5.4 g/dL
  gamma-GTP: 1 IU/L
[…], time 14 day
  TERMINAL_BW: 252.5 g
  APTT: 21 s
  Bas: 0%
  Eos: 0.8%
  Fbg: 278.4 mg/dL
  Hb: 12.8 g/dL
  Ht: 37.3%
  Lym: 63%
  MCH: 21.1 pg
  MCHC: 34.2%
  MCV: 61.8 fL
  Mono: 3%
  Neu: 32.2%
  PT: 14.1 s
  Plat: 107 x10_4/uL
  RBC: 604.8 x10_4/ul
  Ret: 2.3%
  WBC: 4.7 x10_2/uL
  KIDNEY_L: 1 g
  KIDNEY_R: 1 g
  KIDNEY_TOTAL: 2.1 g
  LIVER: 11.4 g
  ALP: 573.6 IU/L
  ALT: 19.8 IU/L
  AST: 40.8 IU/L
  BUN: 18.6 mg/dL
  CRE: 0.2 mg/dL
  Ca: 10.4 mg/dL
  Cl: 109.8 meq/L
  DBIL: 0.002 mg/dL
  GLC: 175.6 mg/dL
  IP: 6.2 mg/dL
  K: 4.2 meq/L
  LDH: 136 IU/L
  Na: 143.4 meq/L
  PL: 146 mg/dL
  RALB: 2.8 g/dL
  TBIL: 0.016 mg/dL
  TC: 73.6 mg/dL
  TG: 142.4 mg/dL
  TP: 5.4 g/dL
  gamma-GTP: 1.2 IU/L
[…], time 28 day
  TERMINAL_BW: 239.3 g
  APTT: 20.4 s
  Bas: 0%
  Eos: 2%
  Fbg: 277.6 mg/dL
  Hb: 9.3 g/dL
  Ht: 27.9%
  Lym: 20.8%
  MCH: 20.7 pg
  MCHC: 33.5%
  MCV: 62 fL
  Mono: 3.8%
  Neu: 69.2%
  PT: 17.7 s
  Plat: 79.2 x10_4/uL
  RBC: 448 x10_4/ul
  Ret: 8.3%
  WBC: 17.2 x10_2/uL
  KIDNEY_L: 1.1 g
  KIDNEY_R: 1.1 g
  KIDNEY_TOTAL: 2.1 g
  LIVER: 9.6 g
  ALP: 471.2 IU/L
  ALT: 35.8 IU/L
  AST: 104.8 IU/L
  BUN: 30 mg/dL
  CRE: 0.2 mg/dL
  Ca: 9.7 mg/dL
  Cl: 114.2 meq/L
  DBIL: 0.05 mg/dL
  GLC: 165.6 mg/dL
  IP: 7.3 mg/dL
  K: 3.9 meq/L
  LDH: 516.4 IU/L
  Na: 145.8 meq/L
  PL: 122 mg/dL
  RALB: 2.6 g/dL
  TBIL: 0.1 mg/dL
  TC: 69.6 mg/dL
  TG: 74.4 mg/dL
  TP: 5.1 g/dL
  gamma-GTP: 1.6 IU/L
